Assay results from patent publication US9242977B2, “Trk-inhibiting compound” (ONO PHARMACEUTICAL CO., LTD., priority 2012, dated 2016).

Assays:
[1] = biological target: TrkA (Homo sapiens (Human), UniProt P04629); experiment: TrkA kinase-inhibiting activity using human TrkA expressing cells (CellSenser TrkA-NFAT-bla CHO-K1, NGF-stimulated reporter assay); format: cell-based; details: CHO-K1 cells expressing human TrkA and NFAT-bla; NGF 50 ng/ml; read-out: TrkA inhibitory activity (IC50; μM)
Protocol: TrkA kinase-inhibiting activity in cell systems was measured using CHO-K1 cells expressing human TrkA and NFAT-bla (CellSenser™ TrkA-NFAT-bla CHO-K1 cells, Invitrogen).
On the day before the assay, CellSenser™ TrkA-NFAT-bla CHO-K1 cells were suspended in an assay medium (Opti-MEM1 Reduced Serum Medium (Invitrogen) containing 0.5% dialysed fetal bovine serum (Invitrogen), 0.1 mM nonessential amino acids (Invitrogen), 1 mM sodium pyruvate (Invitrogen) and antibiotics (100 U/mL penicillin and 100 μg/mL streptomycin (Invitrogen)) and plated at a density of 2.4×10^4 cells/40 μL/well in a 96-well clear bottom plate (Corning, Catalogue No.: 3882). In some wells were added only the assay medium at 40 μL/well (Cell-free). On the day of the assay, 10 mM of the present compound (DMSO solution) was distributed in a 96-well plate (Costar, Catalogue No.: 3363) and serially diluted with DMSO with the geometrical ratio of 3. The serial dilutions were diluted with the assay medium to 100-fold to prepare a solution of the present compound with a 10-times concentration (DMSO concentration: 1%). To the plate where cells were plated was added the present compound at 5 μL/well and the plate was incubated in a CO2 incubator with 5% CO2, 95% Air at 37° C. for 30 minutes. For a control and a blank, the assay medium containing 1% DMSO was added at 5 μL/well in place of the solution of the present compound. Subsequently the assay medium containing NGF (Mouse 2.5s, Natural, Invitrogen) was added to the plate at 5 µL/well (final concentration of NGF: 50 ng/ml) and the plate was incubated in a CO2 incubator with 5% CO2, 95% Air at 37° C. for 5 hours. For a group of blanks, the assay medium was added in place of NGF at 5 μL/well. A reporter assay detection reagent (10 μL/well) was added to the plate and the plate was then incubated in the dark at room temperature for 120 minutes. The reporter assay detection reagent was prepared from LiveBLAzer™-FRET B/G Loading Kit (Invitrogen). On an Analyst GT (Molecular Devices Japan, K.K.) the wells were irradiated with excitation light at 405 nm and the fluorescence intensities at 460 nm and 530 nm were measured. The time resolved fluorescence resonance energy transfer (TR-FRET) ratio of each well was calculated according to the following Equation 2. TR-FRET Ratio=(A460X−A460F)/(A530X−A530F) Equation 2
wherein A460X: the fluorescence intensity at 460 nm of the present compound, control or blank;
A460F: the fluorescence intensity at 460 nm of the Cell-free;
A530X: the fluorescence intensity at 530 nm of the present compound, control or blank; and
A530F: the fluorescence intensity at 530 nm of the Cell-free. […]
The IC50 value of the present compound was calculated from the inhibition curve based on the inhibition rate of the present compound at respective concentrations.

[2] = biological target: Abl (Homo sapiens (Human), UniProt P00519); experiment: Enzyme inhibition activity test for kinases other than Trk (selectivity test): Abl; format: biochemical; details: test concentration 3 μM; read-out: Inhibition Rate (%) Abl
Chain of Abl (P00519 whole entry): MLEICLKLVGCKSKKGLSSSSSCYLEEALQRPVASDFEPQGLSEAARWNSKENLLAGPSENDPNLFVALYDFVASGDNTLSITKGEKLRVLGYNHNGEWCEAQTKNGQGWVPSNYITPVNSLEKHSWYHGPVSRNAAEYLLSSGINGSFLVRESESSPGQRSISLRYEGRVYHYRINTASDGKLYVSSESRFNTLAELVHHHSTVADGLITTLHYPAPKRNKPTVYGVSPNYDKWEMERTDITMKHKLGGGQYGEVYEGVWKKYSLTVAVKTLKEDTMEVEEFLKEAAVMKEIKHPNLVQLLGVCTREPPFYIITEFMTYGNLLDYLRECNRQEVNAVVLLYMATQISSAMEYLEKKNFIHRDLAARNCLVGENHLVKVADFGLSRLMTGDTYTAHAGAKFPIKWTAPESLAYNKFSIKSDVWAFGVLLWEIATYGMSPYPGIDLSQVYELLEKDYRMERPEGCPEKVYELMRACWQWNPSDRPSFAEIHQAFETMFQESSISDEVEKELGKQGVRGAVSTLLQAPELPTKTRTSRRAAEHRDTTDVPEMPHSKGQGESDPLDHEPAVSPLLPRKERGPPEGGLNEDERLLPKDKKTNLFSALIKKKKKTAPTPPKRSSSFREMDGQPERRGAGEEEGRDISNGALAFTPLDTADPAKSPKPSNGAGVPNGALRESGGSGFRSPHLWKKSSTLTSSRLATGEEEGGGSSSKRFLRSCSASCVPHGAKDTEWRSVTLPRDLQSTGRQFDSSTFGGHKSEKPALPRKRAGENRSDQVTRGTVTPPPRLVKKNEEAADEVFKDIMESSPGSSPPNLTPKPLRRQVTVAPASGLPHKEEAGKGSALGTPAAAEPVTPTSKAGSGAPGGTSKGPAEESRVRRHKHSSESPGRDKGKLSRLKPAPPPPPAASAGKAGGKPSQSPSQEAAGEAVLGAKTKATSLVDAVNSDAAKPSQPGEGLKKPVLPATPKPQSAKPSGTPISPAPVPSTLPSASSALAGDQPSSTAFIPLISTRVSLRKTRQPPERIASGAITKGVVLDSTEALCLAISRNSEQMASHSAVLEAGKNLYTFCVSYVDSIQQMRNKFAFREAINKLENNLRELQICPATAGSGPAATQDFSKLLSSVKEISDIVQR
Protocol: (§1) A test substance (present compound or comparative compound) was dissolved in dimethylsulfoxide and further diluted with dimethylsulfoxide to prepare a solution having a concentration of 100 times the test concentration of 3 μM. The solution was further diluted to 25-fold with an assay buffer (20 mM HEPES, 0.01% Triton X-100, 2 mM DTT, pH 7.5) to obtain a test substance solution. In a similar manner a positive control substance solution was prepared with a positive control substance.
(§2) A 4-times concentration solution (5 μL) of the test substance prepared with the assay buffer, 5 μL of a 4-times concentration solution of substrate/ATP/metal (Mg) and 10 μL of a 2-times concentration solution of kinase were mixed in a well of a polypropylene 384-well plate and allowed to react at room temperature for 1 hour. The reaction was terminated by adding 60 μL of a Termination Buffer (QuickScout Screening Assist MSA; Carna Biosciences). The substrate peptide and the phosphorylated peptide in the reaction solution were separated and quantified. The kinase reaction was assessed from the product ratio (P/(P+S)) calculated from the height (S) of the peak of the substrate peptide and the height (P) of the peak of the phosphorylated peptide. Other kinases used in the kinase selectivity experiments were, for example, Abl, c-Met, b-Raf, c-Kit and KDR. The following Table 2 indicates substrates, substrate concentrations, ATP concentrations and positive control substances used in respective kinase enzyme inhibition activity tests.
(§3) The inhibition rate was calculated from the average signal intensity of the test wells containing respective test substances provided that the average signal intensity of control wells each containing all reaction components was 0% inhibition and the average signal intensity of background wells (without addition of the enzyme) was 100% inhibition.

[3] = biological target: KDR (Homo sapiens (Human), UniProt P35968); experiment: Enzyme inhibition activity test for kinases other than Trk (selectivity test): KDR; format: biochemical; details: test concentration 3 μM; read-out: Inhibition Rate (%) KDR
Protocol: as §1, §2, §3

[4] = biological target: c-Met (Homo sapiens (Human), UniProt P08581); experiment: Enzyme inhibition activity test for kinases other than Trk (selectivity test): c-Met; format: biochemical; details: test concentration 3 μM; read-out: Inhibition Rate (%) c-Met
Chain of c-Met (P08581 25-1390): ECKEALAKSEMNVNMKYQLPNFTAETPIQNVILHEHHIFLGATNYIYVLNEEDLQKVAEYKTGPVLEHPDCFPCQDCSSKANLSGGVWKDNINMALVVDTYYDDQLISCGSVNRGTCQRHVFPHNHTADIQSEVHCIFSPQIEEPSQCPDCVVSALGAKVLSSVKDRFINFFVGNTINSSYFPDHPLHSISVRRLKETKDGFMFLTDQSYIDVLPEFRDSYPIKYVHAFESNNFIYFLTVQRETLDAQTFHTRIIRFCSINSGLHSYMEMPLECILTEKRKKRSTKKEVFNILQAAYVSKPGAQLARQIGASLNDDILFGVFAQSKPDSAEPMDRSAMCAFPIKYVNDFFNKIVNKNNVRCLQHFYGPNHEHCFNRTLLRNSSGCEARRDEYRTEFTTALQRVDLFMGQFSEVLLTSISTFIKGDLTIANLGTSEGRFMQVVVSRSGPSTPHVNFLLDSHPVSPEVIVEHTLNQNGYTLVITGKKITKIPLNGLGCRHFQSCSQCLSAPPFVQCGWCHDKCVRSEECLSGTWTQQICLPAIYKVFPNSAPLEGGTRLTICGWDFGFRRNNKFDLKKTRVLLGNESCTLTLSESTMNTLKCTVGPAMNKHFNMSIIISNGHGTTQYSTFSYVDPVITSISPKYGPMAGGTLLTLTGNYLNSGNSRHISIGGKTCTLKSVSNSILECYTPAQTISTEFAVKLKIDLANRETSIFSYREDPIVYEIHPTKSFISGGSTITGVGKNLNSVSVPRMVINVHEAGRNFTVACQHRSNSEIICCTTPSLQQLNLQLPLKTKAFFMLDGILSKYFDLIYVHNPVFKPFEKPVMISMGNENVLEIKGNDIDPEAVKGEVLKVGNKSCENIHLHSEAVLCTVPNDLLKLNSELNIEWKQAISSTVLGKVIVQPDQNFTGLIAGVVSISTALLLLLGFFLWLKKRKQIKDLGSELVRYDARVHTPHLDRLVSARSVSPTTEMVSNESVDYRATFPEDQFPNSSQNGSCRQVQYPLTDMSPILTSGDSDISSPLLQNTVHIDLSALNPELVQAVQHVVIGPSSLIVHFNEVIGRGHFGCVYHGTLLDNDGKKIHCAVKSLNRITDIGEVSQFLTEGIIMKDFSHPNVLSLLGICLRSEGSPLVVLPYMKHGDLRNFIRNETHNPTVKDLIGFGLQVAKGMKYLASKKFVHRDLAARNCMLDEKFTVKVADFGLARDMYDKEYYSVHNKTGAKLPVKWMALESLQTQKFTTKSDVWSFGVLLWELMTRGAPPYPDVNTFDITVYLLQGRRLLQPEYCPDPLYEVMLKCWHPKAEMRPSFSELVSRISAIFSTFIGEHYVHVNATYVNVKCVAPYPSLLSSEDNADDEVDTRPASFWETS
Protocol: as §1, §2, §3

[5] = biological target: c-Kit (Homo sapiens (Human), UniProt P10721); experiment: Enzyme inhibition activity test for kinases other than Trk (selectivity test): c-Kit; format: biochemical; details: test concentration 3 μM; read-out: Inhibition Rate (%) c-Kit
Chain of c-Kit (P10721 26-976): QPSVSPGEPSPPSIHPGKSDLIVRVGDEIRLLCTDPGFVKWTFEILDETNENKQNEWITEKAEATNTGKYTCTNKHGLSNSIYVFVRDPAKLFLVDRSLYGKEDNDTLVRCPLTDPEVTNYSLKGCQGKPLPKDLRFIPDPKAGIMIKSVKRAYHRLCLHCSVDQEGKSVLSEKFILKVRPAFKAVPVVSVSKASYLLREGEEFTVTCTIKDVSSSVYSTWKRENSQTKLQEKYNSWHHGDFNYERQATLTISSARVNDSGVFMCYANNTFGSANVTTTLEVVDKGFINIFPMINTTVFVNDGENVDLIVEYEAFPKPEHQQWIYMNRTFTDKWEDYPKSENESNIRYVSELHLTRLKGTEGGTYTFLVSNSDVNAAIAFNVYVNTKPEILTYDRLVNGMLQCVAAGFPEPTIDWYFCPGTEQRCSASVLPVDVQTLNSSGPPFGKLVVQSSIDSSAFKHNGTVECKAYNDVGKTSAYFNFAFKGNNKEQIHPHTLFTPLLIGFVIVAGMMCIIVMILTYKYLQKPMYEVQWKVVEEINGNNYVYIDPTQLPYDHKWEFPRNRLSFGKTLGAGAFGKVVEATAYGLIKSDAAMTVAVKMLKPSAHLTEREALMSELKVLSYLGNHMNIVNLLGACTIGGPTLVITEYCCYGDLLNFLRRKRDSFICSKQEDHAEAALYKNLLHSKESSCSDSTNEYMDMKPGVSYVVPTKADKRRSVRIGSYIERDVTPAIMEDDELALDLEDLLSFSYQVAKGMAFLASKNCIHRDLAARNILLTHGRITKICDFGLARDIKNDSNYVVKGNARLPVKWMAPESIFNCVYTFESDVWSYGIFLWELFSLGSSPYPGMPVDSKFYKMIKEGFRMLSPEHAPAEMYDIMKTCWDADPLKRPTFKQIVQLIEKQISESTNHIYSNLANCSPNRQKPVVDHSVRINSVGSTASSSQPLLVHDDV
Protocol: as §1, §2, §3

[6] = biological target: b-Raf (Homo sapiens (Human), UniProt P15056); experiment: Enzyme inhibition activity test for kinases other than Trk (selectivity test): b-Raf; format: biochemical; details: test concentration 3 μM; read-out: Inhibition Rate (%) b-Raf
Chain of b-Raf (P15056 whole entry): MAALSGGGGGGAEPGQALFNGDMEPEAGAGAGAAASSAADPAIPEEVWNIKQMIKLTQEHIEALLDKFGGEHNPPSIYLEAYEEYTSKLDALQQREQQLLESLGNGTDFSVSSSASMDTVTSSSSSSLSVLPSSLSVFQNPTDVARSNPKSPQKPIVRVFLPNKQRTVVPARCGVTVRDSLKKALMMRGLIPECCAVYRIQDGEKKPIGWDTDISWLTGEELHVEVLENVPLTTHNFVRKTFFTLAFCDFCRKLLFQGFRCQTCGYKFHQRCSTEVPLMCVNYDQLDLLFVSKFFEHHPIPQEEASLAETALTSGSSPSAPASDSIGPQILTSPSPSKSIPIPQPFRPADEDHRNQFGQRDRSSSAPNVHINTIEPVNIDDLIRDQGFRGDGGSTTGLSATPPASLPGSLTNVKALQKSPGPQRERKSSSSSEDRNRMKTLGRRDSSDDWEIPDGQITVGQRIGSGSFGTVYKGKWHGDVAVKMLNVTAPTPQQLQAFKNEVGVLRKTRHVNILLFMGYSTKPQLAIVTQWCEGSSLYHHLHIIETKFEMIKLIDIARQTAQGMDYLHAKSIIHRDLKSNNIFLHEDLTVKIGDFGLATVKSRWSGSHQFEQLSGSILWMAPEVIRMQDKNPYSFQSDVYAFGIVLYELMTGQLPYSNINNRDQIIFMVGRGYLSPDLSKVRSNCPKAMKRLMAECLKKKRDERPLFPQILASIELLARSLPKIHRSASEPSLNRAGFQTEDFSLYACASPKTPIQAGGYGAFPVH
Protocol: as §1, §2, §3

Chain of TrkA (P04629 33-796): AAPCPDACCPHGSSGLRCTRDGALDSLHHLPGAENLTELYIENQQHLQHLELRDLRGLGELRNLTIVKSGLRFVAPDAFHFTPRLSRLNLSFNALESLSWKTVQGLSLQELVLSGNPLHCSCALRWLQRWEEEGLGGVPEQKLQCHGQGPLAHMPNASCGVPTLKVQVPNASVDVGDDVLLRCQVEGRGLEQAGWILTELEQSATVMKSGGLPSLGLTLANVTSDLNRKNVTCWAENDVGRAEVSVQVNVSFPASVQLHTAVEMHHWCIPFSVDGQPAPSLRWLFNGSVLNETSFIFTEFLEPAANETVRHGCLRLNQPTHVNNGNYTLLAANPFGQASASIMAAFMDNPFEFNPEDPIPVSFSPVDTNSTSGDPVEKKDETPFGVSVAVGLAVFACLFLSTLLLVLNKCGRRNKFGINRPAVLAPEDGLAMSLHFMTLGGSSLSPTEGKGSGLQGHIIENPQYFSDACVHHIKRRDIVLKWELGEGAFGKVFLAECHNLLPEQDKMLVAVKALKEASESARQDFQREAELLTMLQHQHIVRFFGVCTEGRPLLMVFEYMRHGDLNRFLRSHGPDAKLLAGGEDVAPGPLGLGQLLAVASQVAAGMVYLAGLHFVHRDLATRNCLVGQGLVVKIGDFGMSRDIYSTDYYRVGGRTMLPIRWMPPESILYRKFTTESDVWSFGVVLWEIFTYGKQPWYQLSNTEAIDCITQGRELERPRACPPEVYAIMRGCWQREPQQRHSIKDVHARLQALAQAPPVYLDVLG

| SMILES | IC50 [1] [µM] | inhibition at 3 µM [2] [%] | inhibition at 3 µM [3] [%] | inhibition at 3 µM [4] [%] | inhibition at 3 µM [5] [%] | inhibition at 3 µM [6] [%] |
| --- | --- | --- | --- | --- | --- | --- |
| O=C(Nc1cnc(Oc2ccc(-c3cnc(N4CCCC4=O)s3)cc2)nc1)Nc1cc(C(F)(F)F)cnc1-c1ccccc1 [Example 54, 1-(2-{4-[2-(2-oxo-1-pyrrolidinyl)-1,3-thiazol-5-yl]phenoxy}-5-pyrimidinyl)-3-[2-phenyl-5-(trifluoromethyl)-3-pyridinyl]urea] | 0.004 | 8.9 | 2.4 | 0 | 7.2 | 17 |
| CCCNc1ncc(-c2ccc(Oc3ncc(NC(=O)Nc4cc(C(F)(F)F)ccc4Cl)cn3)cc2)s1 [Example 85-117, 1-[2-chloro-5-(trifluoromethyl)phenyl]-3-(2-{4-[2-(propylamino)-1,3-thiazol-5-yl]phenoxy}-5-pyrimidinyl)urea] | 0.002 | 0 | 0 | 0 | 19 | 13 |
| Cc1cccc(-c2ncc(C(F)(F)F)cc2NC(=O)Nc2cnc(Oc3ccc(-c4cnc(N5CCCC5=O)s4)cc3)nc2)c1 [Example 57, 1-[2-(3-methylphenyl)-5-(trifluoromethyl)-3-pyridinyl]-3-(2-{4-[2-(2-oxo-1-pyrrolidinyl)-1,3-thiazol-5-yl]phenoxy}-5-pyrimidinyl)urea] | 0.003 | 0 | 0 | 4.9 | 9.1 | 18 |
| CCNc1ncc(-c2ccc(Oc3ccc(NC(=O)Nc4cc(C(F)(F)F)cnc4-c4ccc(C)c(C)c4)cn3)cc2)s1 [Example 34, 1-[2-(3,4-dimethylphenyl)-5-(trifluoromethyl)-3-pyridinyl]-3-(6-{4-[2-(ethylamino)-1,3-thiazol-5-yl]phenoxy}-3-pyridinyl)urea] | 0.006 |  |  |  |  |  |
| CCNc1ncc(-c2ccc(Oc3ncc(NC(=O)Nc4cc(C(F)(F)F)cnc4Oc4ccccc4)cn3)cc2)s1 [Example 48, 1-(2-{4-[2-(ethylamino)-1,3-thiazol-5-yl]phenoxy}-5-pyrimidinyl)-3-[2-phenoxy-5-(trifluoromethyl)-3-pyridinyl]urea] | 0.01 |  |  |  |  |  |
| CCNc1ncc(-c2ccc(Oc3ncc(NC(=O)Nc4cc(C(F)(F)F)cnc4-c4ccc(C)cc4)cn3)cc2)s1 [Example 23, 1-(2-{4-[2-(ethylamino)-1,3-thiazol-5-yl]phenoxy}-5-pyrimidinyl)-3-[2-(4-methylphenyl)-5-(trifluoromethyl)-3-pyridinyl]urea] | 0.004 | 25 | 15 | 6.5 | 31 | 23 |
